Data: EPA's ToxRefDB 2

What was measured:
dog [1] = conditions: Subchronic oral toxicity in nonrodent, beagle, Feed, dose end: 13 week, group: systemic, systemic / in life observation / clinical signs / abnormal gait + systemic / in life observation / clinical signs / impaired reflex, nos + …
dog [2] = conditions: Chronic toxicity, beagle, Oral, Feed, dose end: 52 week, group: systemic
dog [3] = conditions: Chronic toxicity, beagle, Oral, Feed, dose end: 26 week, group: systemic
mouse [4] = conditions: Carcinogenicity, cd1, Oral, Feed, dose end: 80 week, group: systemic
dog [5] = conditions: Chronic toxicity; beagle; Oral; Feed; dose end: 52 week; group: systemic; systemic / in life observation / clinical signs / abnormal gait + systemic / in life observation / clinical signs / abnormal posture + …
rat [6] = conditions: Subchronic oral toxicity in rodents, wistar, Feed, dose end: 13 week
rat [7] = conditions: Combined chronic toxicity/carcinogenicity, fischer, Oral, Feed, dose end: 2 year, group: systemic
mouse [8] = conditions: Combined chronic toxicity/carcinogenicity, other, Oral, Feed, dose end: 23 month, group: systemic
rat [9] = conditions: Multigenerational reproductive toxicity study, wistar, Oral, Feed, dose end: 3 generation
rat [10] = conditions: Prenatal developmental toxicity study, wistar, Oral, Gavage/Intubation, dose end: 15 GD
rabbit = conditions: Prenatal developmental toxicity study, chinchilla, Oral, Gavage/Intubation, dose end: 18 GD, group: maternal
rat [11] = conditions: Combined chronic toxicity/carcinogenicity, wistar, Oral, Feed, dose end: 104 week, group: systemic
[12] = systemic / in life observation / clinical signs / ataxia + systemic / in life observation / clinical signs / defecation (diarrhea) + …
[13] = systemic / in life observation / clinical signs / defecation (diarrhea) + systemic / in life observation / clinical signs / stiffness + …
[14] = systemic / in life observation / body weight / body weight gain
[15] = systemic / in life observation / body weight / body weight gain + systemic / pathology gross / ear / lesion(s) (nos) + systemic / pathology …
[16] = group: cholinesterase, cholinesterase / cholinesterase / cholinesterase / cholinesterase (che)
[17] = group: systemic, systemic / clinical chemistry / chloride / chloride
[18] = systemic / in life observation / body weight / body weight + systemic / in life observation / body weight / body weight gain + systemic / in…
[19] = systemic / clinical chemistry / alkaline phosphatase (alp/alk) / alkaline phosphatase (alp/alk)
[20] = systemic / clinical chemistry / alkaline phosphatase (alp/alk) / alkaline phosphatase (alp/alk) + systemic / in life observation / body …
[21] = group: offspring, developmental / offspring survival late / viability index / viability index + systemic / in life observation / body weight / offspring (pup…
[22] = group: offspring, systemic / in life observation / body weight / offspring (pup) weight gain + developmental / offspring survival late / viability index / …
[23] = group: parental, systemic / in life observation / body weight / body weight
[24] = group: developmental, developmental / developmental malformation / bone / enlarged fontanel + developmental / developmental malformation / bone / incomplete …
[25] = group: maternal, systemic / in life observation / body weight / body weight gain + systemic / in life observation / food consumption / food consumption + …
[26] = systemic / in life observation / body weight / body weight gain + systemic / in life observation / food consumption / food consumption + …
[27] = systemic / in life observation / body weight / body weight + systemic / clinical chemistry / [other] / [other] + systemic / organ weight / …

Compound: CC1(C)C(C=C(Cl)Cl)C1C(=O)OC(C#N)c1ccc(F)c(Oc2ccccc2)c1 (stereo not given) [Cyfluthrin]
- LEL (dog [1]): 13.9 mg/kg/day
- LOAEL (dog [1]): 13.9 mg/kg/day
- NEL (dog [1]): 2.36 mg/kg/day
- NOAEL (dog [1]): 2.36 mg/kg/day
- LOAEL (dog [2]; systemic / in life observation / clinical signs / ataxia): 16 mg/kg/day
- LEL (dog [2]; [12]): 16 mg/kg/day
- NEL (dog [2]; [12]): 4 mg/kg/day
- NOAEL (dog [2]; [12]): 4 mg/kg/day
- LOAEL (dog [3]; [13]): 15 mg/kg/day
- NEL (dog [3]; [13]): 1.62 mg/kg/day
- NOAEL (dog [3]; [13]): 5 mg/kg/day
- LEL (dog [3]; systemic / organ weight / thymus / absolute): 5 mg/kg/day
- LEL (mouse [4]; [14]): 31.9 mg/kg/day
- NEL (mouse [4]; [14]): < 31.9 mg/kg/day
- LOAEL (mouse [4]; [15]): 115 mg/kg/day
- NOAEL (mouse [4]; [15]): 31.9 mg/kg/day
- LEL (dog [5]): 10.6 mg/kg/day
- LOAEL (dog [5]): 10.6 mg/kg/day
- NEL (dog [5]): 2.43 mg/kg/day
- NOAEL (dog [5]): 2.43 mg/kg/day
- LEL (rat [6]; [16]): 38.9 mg/kg/day
- LOAEL (rat [6]; [16]): > 38.9 mg/kg/day
- NEL (rat [6]; [16]): 9.5 mg/kg/day
- NOAEL (rat [6]; [16]): ≥ 38.9 mg/kg/day
- LEL (rat [6]; [17]): 2.3 mg/kg/day
- NEL (rat [6]; [17]): < 2.3 mg/kg/day
- NOAEL (rat [6]; group: systemic, systemic / clinical chemistry / chloride / chloride + systemic / in life observation / body weight / body weight gain + systemic / in life …): 9.5 mg/kg/day
- LOAEL (rat [6]; group: systemic, systemic / in life observation / body weight / body weight gain + systemic / in life observation / clinical signs / lack of coordination + …): 38.9 mg/kg/day
- LOAEL (rat [7]; systemic / in life observation / body weight / body weight + systemic / in life observation / body weight / body weight gain): 11.6 mg/kg/day
- NEL (rat [7]; [18]): 2.6 mg/kg/day
- NOAEL (rat [7]; [18]): 2.6 mg/kg/day
- LEL (rat [7]; systemic / in life observation / body weight / body weight + systemic / in life observation / body weight / body weight gain + systemic / …): 11.6 mg/kg/day
- LEL (mouse [8]; [19]): 11.6 mg/kg/day
- NEL (mouse [8]; [19]): < 11.6 mg/kg/day
- LOAEL (mouse [8]; [20]): > 194 mg/kg/day
- NOAEL (mouse [8]; [20]): ≥ 194 mg/kg/day
- LOAEL (rat [9]; [21]): 12.3 mg/kg/day
- NOAEL (rat [9]; [21]): 3.8 mg/kg/day
- LEL (rat [9]; [22]): 3.8 mg/kg/day
- NEL (rat [9]; [22]): < 3.8 mg/kg/day
- LEL (rat [9]; [23]): 3.8 mg/kg/day
- NEL (rat [9]; [23]): < 3.8 mg/kg/day
- LOAEL (rat [9]; group: parental, systemic / in life observation / body weight / body weight gain): 37.2 mg/kg/day
- NOAEL (rat [9]; group: parental, systemic / in life observation / body weight / body weight gain + systemic / in life observation / body weight / body weight): 12.3 mg/kg/day
- LEL (rat [10]; [24]): 40 mg/kg/day
- LOAEL (rat [10]; [24]): 40 mg/kg/day
- NEL (rat [10]; [24]): 10 mg/kg/day
- NOAEL (rat [10]; [24]): 10 mg/kg/day
- LOAEL (rat [10]; group: maternal, systemic / in life observation / body weight / body weight gain + systemic / in life observation / food consumption / food consumption): 10 mg/kg/day
- LEL (rat [10]; [25]): 10 mg/kg/day
- NEL (rat [10]; [25]): 3 mg/kg/day
- NOAEL (rat [10]; [25]): 3 mg/kg/day
- LOAEL (rabbit; systemic / in life observation / body weight / body weight gain + systemic / in life observation / food consumption / food consumption): 60 mg/kg/day
- LEL (rabbit; [26]): 60 mg/kg/day
- NEL (rabbit; [26]): 20 mg/kg/day
- NOAEL (rabbit; [26]): 20 mg/kg/day
- LOAEL (rat [11]; systemic / in life observation / body weight / body weight): 19.2 mg/kg/day
- LEL (rat [11]; systemic / in life observation / body weight / body weight + systemic / clinical chemistry / [other] / [other]): 6.19 mg/kg/day
- NEL (rat [11]; [27]): 2.02 mg/kg/day
- NOAEL (rat [11]; [27]): 6.19 mg/kg/day
